# Laboratory results: patent US10118935B2, “Melampomagnolide B dimers” (priority 2014, dated 2018)
# Assays:
# HS 578T = experiment: NCI 60 cell line five dose, Breast Cancer; details: HS 578T
# MDA-MB-435 = experiment: NCI 60 cell line five dose, Melanoma
# SK-MEL-5 = experiment: NCI 60 cell line five dose, Melanoma; details: SK-MEL-5
# A498 = experiment: NCI 60 cell line five dose, Renal Cancer
# NCI-H226 = experiment: NCI 60 cell line five dose, Non-Small Cell Lung Cancer
# [1] = system: panel of 60 human cancer cell lines; experiment: Five-dose growth inhibition, panel; assay type: cell-based
# LOX IMVI = experiment: NCI 60 cell line five dose, Melanoma
# CCRF-CEM = experiment: NCI 60 cell line five dose, Leukemia
# SK-MEL-2 = experiment: NCI 60 cell line five dose, Melanoma
# MOLT-4 = experiment: NCI 60 cell line five dose, Leukemia
# A549/ATCC = experiment: NCI 60 cell line five dose, Non-Small Cell Lung Cancer
# MCF7 = experiment: NCI 60 cell line five dose, Breast Cancer
# ACHN = experiment: NCI 60 cell line five dose, Renal Cancer
# PC-3 = experiment: NCI 60 cell line five dose, Prostate Cancer
# UACC-257 = experiment: NCI 60 cell line five dose, Melanoma
# CAKI-1 = experiment: NCI 60 cell line five dose, Renal Cancer
# HT29 = experiment: NCI 60 cell line five dose, Colon Cancer
# SR = experiment: NCI 60 cell line five dose, Leukemia
# SNB-75 = experiment: NCI 60 cell line five dose, CNS Cancer
# OVCAR-4 = experiment: NCI 60 cell line five dose, Ovarian Cancer
# NCI-H460 = experiment: NCI 60 cell line five dose, Non-Small Cell Lung Cancer
# T-47D = experiment: NCI 60 cell line five dose, Breast Cancer
compound,measurement,setting,value
"C=C1C(=O)O[C@H]2[C@H]1CC/C(COC(=O)CCC(=O)NCCCCCCCCNC(=O)CCC(=O)OC/C1=C/CC[C@@]3(C)O[C@H]3[C@H]3OC(=O)C(=C)[C@@H]3CC1)=C\CC[C@@]1(C)O[C@@H]21 [JVM 2-87, bis(((1aR,7aS,10aS,10bS,E)-1a-Methyl-8-methylene-9-oxo-1a,2,3,6,7,7a,8,9,10a,1b-decahydrooxireno[2′,3′:9,10]cyclodeca[1,2-b]furan-5-yl)methyl)4,4′-(octane-1,8-diylbis(azanediyl))bis(4-oxobutanoate)]",GI50,HS 578T,3.88 µM
same,TGI,HS 578T,29.5 µM
same,GI50,MDA-MB-435,1.8 µM
same,TGI,MDA-MB-435,3.69 µM
same,GI50,SK-MEL-5,3.13 µM
same,TGI,SK-MEL-5,11.1 µM
same,GI50,A498,6.72 µM
same,TGI,A498,20.8 µM
same,GI50,NCI-H226,2.06 µM
same,TGI,NCI-H226,4.95 µM
same,growth inhibition (GI50),"[1]; CCRF-CEM, HL-60 (TB), K-562, SR",nanomolar range
same,growth inhibition (GI50),"[1]; NCI-H522, RXF 393, MCF7",nanomolar range
same,growth inhibition (GI50),[1]; other human tumor cell lines in the panel,low micromolar range
same,GI50,LOX IMVI,1.37 µM
same,TGI,LOX IMVI,2.76 µM
same,GI50,CCRF-CEM,0.32 µM
same,TGI,CCRF-CEM,1.48 µM
same,GI50,SK-MEL-2,2.25 µM
same,TGI,SK-MEL-2,4.59 µM
same,GI50,MOLT-4,2.11 µM
same,TGI,MOLT-4,6.41 µM
same,GI50,A549/ATCC,18.5 µM
same,TGI,A549/ATCC,40.7 µM
same,GI50,MCF7,0.77 µM
same,TGI,MCF7,2.47 µM
same,GI50,ACHN,3.13 µM
same,TGI,ACHN,10.9 µM
same,GI50,PC-3,3.64 µM
same,TGI,PC-3,13.7 µM
same,CC50,PC-3; read-out: LC50,40.7 µM
same,CC50,NCI-H322M,60.5 µM
same,GI50,UACC-257,1.76 µM
same,TGI,UACC-257,4.48 µM
same,GI50,CAKI-1,12.7 µM
same,TGI,CAKI-1,32.0 µM
same,GI50,HT29,1.64 µM
same,TGI,HT29,3.12 µM
same,GI50,SR,0.41 µM
same,TGI,SR,2.10 µM
same,GI50,SNB-75,2.02 µM
same,TGI,SNB-75,7.25 µM
same,GI50,OVCAR-4,1.64 µM
same,TGI,OVCAR-4,3.92 µM
same,GI50,NCI-H460,5 µM
same,TGI,NCI-H460,19.9 µM
same,GI50,T-47D,1.51 µM
same,TGI,T-47D,3.86 µM
